According to patent publication US20220331414A1, “LIPID COMPOUNDS AND LIPID NANOPARTICLE COMPOSITIONS” (Suzhou Abogen Biosciences Co., Ltd., priority 2020, published 2022):

Assays:
[1] = Lipid nanoparticle size and polydispersity by dynamic light scattering; type: physicochemical; details: LNP of cationic lipid/DSPC/cholesterol/PEG-lipid 50:10:38.5:1.5 with mRNA
Protocol: (§1) Briefly, a cationic lipid provided herein, DSPC, cholesterol, and PEG-lipid were solubilized in ethanol at a molar ratio of 50:10:38.5:1.5, and mRNA were diluted in 10 to 50 mM citrate buffer, pH=4. The LNPs were prepared at a total lipid to mRNA weight ratio of approximately 10:1 to 30:1 by mixing the ethanolic lipid solution with the aqueous mRNA solution at a volume ratio of 1:3 using a microfluidic apparatus, total flow rate ranging from 9-30 mL/min. Ethanol were thereby removed and replaced by DPBS using dialysis. Finally, the lipid nanoparticles were filtered through a 0.2 μm sterile filter.
(§2) Lipid nanoparticle size were determined by dynamic light scattering using a Malvern Zetasizer Nano ZS (Malvern UK) using a 173° backscatter detection mode. The encapsulation efficiency of lipid nanoparticles were determined using a Quant-it Ribogreen RNA quantification assay kit (Thermo Fisher Scientific, UK) according to the manufacturer's instructions.

[2] = Encapsulation efficiency of lipid nanoparticles (Quant-it Ribogreen RNA assay); type: physicochemical
Protocol: as §1, §2

[3] = Apparent pKa of LNP formulations by TNS fluorescence assay; details: LNP cationic lipid/DSPC/cholesterol/DMG-PEG 50/10/38.5/1.5 mol %, pH 3 to 9
Protocol: TNS was prepared as a 300 uM stock solution in distilled water. LNP formulations were diluted to 0.1 mg/ml total lipid in 3 mL of buffered solutions containing 50 mM sodium citrate, 50 mM sodium phosphate, 50 mM sodium borate, and 30 mM sodium chloride where the pH ranged from 3 to 9. An aliquot of the TNS solution was added to give a final concentration of 0.1 mg/ml and following vortex mixing fluorescence intensity was measured at room temperature in a Molecular Devices Spectramax iD3 spectrometer using excitation and mission wavelengths of 325 nm and 435 nm. A sigmoidal best fit analysis was applied to the fluorescence data and the pKa value was measured as the pH giving rise to half—maximal fluorescent intensity.

[4] = LNP of cationic lipid/DSPC/cholesterol/PEG-lipid 50:10:38.5:1.5 with mRNA

Row | SMILES | polydispersity [1] | size (nm) [1] [nm] | Encapsulation Efficiency [2, 4] [%] | Apparant Pka [3] | Encapsulation Efficiency ([2]; cell printed without % sign)
1 | CCCCCCCCC(CCCCCC)COP(=O)(NCCCN1CCCCCC1)OCC(CCCCCC)CCCCCCCC (stereo not drawn) [Compound 29] | 0.09 | 84.8 | 58.9 | 5.51 | –
2 | CCCCCCCCC(CCCCCC)C(C)OP(=O)(NCCN(CC)CC)OC(C)C(CCCCCC)CCCCCCCC (stereo not drawn) [Compound 59] | 0.118 | 90.85 | 58.6 | 4.385 | –
3 | CCCCCCCCC(CCCCCC)COP(=O)(NCCCCN(C)C)OCC(CCCCCC)CCCCCCCC (stereo not drawn) [Compound 22] | 0.101 | 79.13 | 98.7 | 7.37 | –
4 | CCCCCCCCCCCCCOP(=O)(OCCCCCCCCCCCCC)N1CCC(N(C)C)CC1 [Compound 18] | 0.074 | 159.2 | 94.3 | 6.16 | –
5 | CCCCCCCCC(CCCCCCCC)OC(=O)CCCCCCCOP(=O)(NCCCN(C)C)OCCCCCCCC(=O)OC(CCCCCCCC)CCCCCCCC [Compound 36] | 0.091 | 63.97 | 95.3 | 6.20 | –
6 | CCCCCCCCCOC(=O)CCCCCOP(=O)(NCCCCN(C)C)OCCCCCC(=O)OCCCCCCCCC [Compound 2] | 0.181 | 116.8 | 98.5 | 9.07 | –
7 | CCCCCCCCCOP(=O)(OCCCCCCCCC)OCCCN(C)C [Compound 8] | 0.187 | 56.41 | 93.2 | 8.10 | –
8 | CC/C=C\CCC(CC/C=C\CC)COP(=O)(NCCN(CC)CC)OCC(CC/C=C\CC)CC/C=C\CC [Compound 88] | 0.205 | 179.7 | 49.0 | 6.571 | –
9 | CCCCCCCCCCC(CCCCCCCCCC)COP(=O)(NCCN1CCCC1)OCC(CCCCCCCCCC)CCCCCCCCCC [Compound 87] | 0.045 | 66.05 | 93.8 | 6.303 | –
10 | CCCCCCCCC(CCCCCC)COP(=O)(NCCN1CCC(F)(F)C1)OCC(CCCCCC)CCCCCCCC (stereo not drawn) [Compound 60] | 0.179 | 85.33 | 55.0 | 3.726 | –
11 | CCCCCCC(CCCCCC)COP(=O)(NCCN1CCCC1)OCC(CCCCCC)CCCCCC [Compound 83] | 0.056 | 82.63 | 87.8 | 6.319 | –
12 | CCCCCCCCCOP(=O)(NCCN1CCCCC1)OCCCCCCCC(=O)OC(CCCCCCCC)CCCCCCCC (stereo not drawn) [Compound 33] | 0.091 | 128.5 | 98.2 | 7.74 | –
13 | CCCCCCCCC(CCCCCC)COP(=O)(NCCN1CCOCC1)OCC(CCCCCC)CCCCCCCC (stereo not drawn) [Compound 30] | 0.197 | 71.91 | 16.8 | 3.88 | –
14 | CCCCCCCCC(CCCCCC)COP(=O)(NCCN(CCC)CCO)OCC(CCCCCC)CCCCCCCC (stereo not drawn) [Compound 53] | 0.329 | 90.86 | 95.1 | 5.679 | –
15 | CCCCCCCCC(CCC)COP(=O)(NCCN1CCCC1)OCC(CCC)CCCCCCCC (stereo not drawn) [Compound 71] | 0.108 | 69.18 | 94.4 | 7.104 | –
16 | CCCCCCCCC(CCCCCC)COP(=O)(OCCN1CCCC1)OCC(CCCCCC)CCCCCCCC (stereo not drawn) [Compound 76] | 0.24 | 74.49 | 76.6 | 4.666 | –
17 | CCCCCCC(CCCCCC)COP(=O)(NCCN(CC)CC)OCC(CCCCCC)CCCCCC [Compound 65] | 0.085 | 95.97 | 94.1 | 6.133 | –
18 | CCCCCCCCCCCCCOP(=O)(NCCN1CCN(C(C)=O)CC1)OCCCCCCCCCCCCC [Compound 17] | 0.073 | 119.8 | 61.6 | 5.42 | –
19 | CCCCCCCCC(CCCCCC)COP(=O)(NCCN1CCCC1)OCC(CCCCCC)CCCCCCCC (stereo not drawn) [Compound 24] | 0.131 | 81.53 | 98.0 | 6.63 | –
20 | CCCCCCCCCCCCCOP(=O)(NCCN1CCCCC1)OCCCCCCCC(=O)OC(CCCCCCCC)CCCCCCCC (stereo not drawn) [Compound 34] | 0.258 | 58.48 | 98.4 | 7.45 | –

Row | SMILES | polydispersity [1] | size (nm) [1] [nm] | Encapsulation Efficiency [2, 4] [%] | Apparant Pka [3] | Encapsulation Efficiency ([2]; cell printed without % sign)
21 | CCCCCCCCC(CCCCCC)COP(=O)(NCCCN1CCCCC1)OCC(CCCCCC)CCCCCCCC (stereo not drawn) [Compound 27] | 0.135 | 83.11 | 75.7 | 5.18 | –
22 | CCCCCCCCC(CCC)COP(=O)(NCCN(CC)CC)OCC(CCC)CCCCCCCC (stereo not drawn) [Compound 70] | 0.298 | 53.76 | 93.8 | 6.153 | –
23 | CCCCCCCCCOP(=O)(NCCCN(C)C)OCCCCCCCC(=O)OC(CCCCCCCC)CCCCCCCC (stereo not drawn) [Compound 32] | 0.077 | 80.54 | 101.1 | 8.96 | –
24 | CCCCCCCCC(CCCCCC)COP(=O)(NCCN(CCO)CCCC)OCC(CCCCCC)CCCCCCCC (stereo not drawn) [Compound 54] | 0.037 | 138.5 | 88.8 | 5.644 | –
25 | CCCCCCCCC(CCCCC)COP(=O)(NCCN1CCCC1)OCC(CCCCC)CCCCCCCC (stereo not drawn) [Compound 74] | 0.162 | 66.97 | 96.9 | 6.381 | –
26 | CCCCCCCCC(CCCCCCCC)COP(=O)(NCCN(CC)CC)OCC(CCCCCCCC)CCCCCCCC [Compound 80] | 0.172 | 57.31 | 94.2 | 6.259 | –
27 | CCCCCCCCC(CCCCCCCC)COP(=O)(NCCN1CCCC1)OCC(CCCCCCCC)CCCCCCCC [Compound 81] | 0.218 | 56.41 | 92.7 | 5.661 | –
28 | CCCCCCCCC(CCCCCC)COP(=O)(NCCN(CCO)CCCC)OCC(CCCCCC)CCCCCCCC (stereo not drawn) [Compound 14] | 0.037 | 138.5 | 88.8 | 5.64 | –
29 | CCCCCCCCCCCCCOP(=O)(OCCCCCCCCCCCCC)N1CC2(CCN(C)CC2)C1 [Compound 20] | 0.068 | 92.15 | 94.2 | 5.81 | –
30 | CCCCCCCCC(CCCCCC)COP(=O)(NCCCN1CCCC1)OCC(CCCCCC)CCCCCCCC (stereo not drawn) [Compound 25] | 0.057 | 109.7 | 52.3 | 5.49 | –
31 | CCCCCCCCC(CC)COP(=O)(NCCN(CC)CC)OCC(CC)CCCCCCCC (stereo not drawn) [Compound 67] | 0.116 | 86.9 | 93.3 | 7.195 | –
32 | CCCCCCCCC(CCCCCC)COP(=O)(NCCN1CCCCCC1)OCC(CCCCCC)CCCCCCCC (stereo not drawn) [Compound 28] | 0.204 | 77.49 | 48.1 | 4.92 | –
33 | CCCCCCCCC(CCCCCC)COP(=O)(OCCN1CCCCC1)OCC(CCCCCC)CCCCCCCC (stereo not drawn) [Compound 77] | 0.138 | 63.36 | 85.2 | 5.309 | –
34 | CCCCCCCCC(CCCCCC)COP(=O)(NCCN(CCO)C1CCCCC1)OCC(CCCCCC)CCCCCCCC (stereo not drawn) [Compound 47] | 0.071 | 73.53 | – | 5.27 | 0.864
35 | CCCCCCCCCCCCCOP(=O)(NC1CCN(C2CCOCC2)CC1)OCCCCCCCCCCCCC [Compound 16] | 0.113 | 305.4 | 79.9 | 7.75 | –
36 | CCCCCCCCC(CCCCCC)COP(=O)(NCCCN(C)C)OCC(CCCCCC)CCCCCCCC (stereo not drawn) [Compound 7] | 0.1 | 73.54 | 96.3 | 7.20 | –
37 | CCCCCCCCC(CCCCC)COP(=O)(NCCN(CC)CC)OCC(CCCCC)CCCCCCCC (stereo not drawn) [Compound 72] | 0.154 | 73.94 | 95.6 | 5.86 | –
38 | CCCCCCC(CCCCCC)COP(=O)(NCCN(CC)CC)OCC(CCCCCC)CCCCCC [Compound 82] | 0.138 | 70.5 | 86.9 | 6.097 | –
39 | CCCCCCCCCCC(CCCCCCCC)COP(=O)(NCCN(CC)CC)OCC(CCCCCCCC)CCCCCCCCCC (stereo not drawn) [Compound 78] | 0.234 | 63.03 | 95.2 | 5.969 | –
